Measured values as given in patent US20060217368A1, “Drug for nerve regeneration” (Kyowa Hakko Kogyo Co., Ltd., priority 2003, published 2006).

Legend:
Type in all cases: cell-based, rat
ANSC-7 cells [1] = assay: Neuropoiesis of ANSC-7 adult neural stem cells: number of Tuj1 positive neurons after induction of differentiation
Procedure: ANSC-7 cells which can be obtained by the method described in Reference Example 2 are plated at 1.8×10^5 cells per well in a 12-well culture dish which was coated with polyornithine and laminin and was filled with a DMEM/F12 medium containing 1 ml of a 1% N2 supplement (manufactured by Invitrogen Corporation) and 20 ng/ml FGF-2 (manufactured by PeproTech Inc.), and incubated overnight. Entire culture fluid is changed into a DMEM/F12 medium containing 0.5% fetal bovine serum and a 1% N2 supplement without including FGF2 (manufactured by Invitrogen Corporation, hereinafter, referred to as differentiation inducing medium) to induce differentiation. Upon the induction, the substance that inhibits the activity of GSK-3 serially diluted in PBS (manufactured by Invitrogen Corporation) or DMSO in the range of from 0.01 mmol/l to […] is added thereto in 1/1000 volume. As a negative control, the same volume of PBS or DMSO is added.
After changing the culture fluid into the differentiation inducing medium supplemented with each substance that inhibits the activity of GSK-3 every three days, and inducing differentiation for 6 days, it is replaced with a 15% neutral buffered formalin solution (Wako Pure Chemical Industries, Ltd.) to allow fixation for 20 min. Thereafter, washing with PBS containing 0.3% Triton X-100 (manufactured by Nacalai Tesque, Inc.) for 5 min is repeated three times. Next, after blocking the cells using a 10% goat fetal serum diluted in PBS (manufactured by DAKO Corporation) for 2 hrs, a reaction is allowed with a mouse anti-Tuj1 (β tubulin isotype III) antibody (manufactured by Sigma-Aldrich Corporation) diluted 1000 times in PBS as a primary antibody at 4° C. for 16 hrs. Thereafter, washing with PBS containing 0.3% Triton X-100 for 5 min is repeated three times.
Next, a reaction is allowed with Alexa Fluor 488 conjugate goat anti-mouse IgG antibody (manufactured by Molecular Probes, Inc.) diluted 1000 times as a secondary antibody at room temperature for 2 hrs. At the same time, Bisbenzimide H 33342 Fluorochrome, Trihydrochloride (manufactured by CALBIOCHEM, hereinafter, described as H33342) is added thereto to give the final concentration of 1 μg/ml to stain the nucleus. After immersing in PBS, observation with an inverted fluorescence microscope (manufactured by Nikon Corporation) is conducted, and the number of Tuj1 positive cells per 2.44 mm^2 is counted.

ANSC-7 cells [2] = assay: Suppression of neuropoiesis by associated beta amyloid peptide and relief by GSK-3 inhibitor (Tuj1 positive neurons); conditions: day 6
Procedure: A beta amyloid peptide (hereinafter, referred to as Aβ) is a principal component constituting senile plaques, and it is a substance which has been believed to be a cause of Alzheimer's disease [Proc. Nat. Acad. Sci., USA, 98, 11039-11041 (2001)]. Aβ [1-40] (manufactured by BIOSOURCE) was dissolved in 0.1% (v/v) trifluoroacetic acid (Manufactured by Nacalai Tesque, Inc.) to give 10 mg/ml, and incubated at 25° C. for 1 hour. Thereafter, the solution was diluted in PBS to give 0.5 mg/ml. The diluted solution was incubated at 25° C. for 24 hrs to allow the formation of an associated product [J. Biol. Chem., 276, 42027-42034 (2001)]. […] On day 2 and day 4 following the induction of differentiation, the entire medium was changed to the differentiation inducing medium alone, respectively, and the number of neurons was measured on day 6 following induction of the differentiation.
According to a similar method to that shown in Experimental Example 8, lithiumchloride at a final concentration of 3 mmol/l, or Kenpaullone at a final concentration of 2 μmol/l was added to a differentiation inducing medium containing the associated Aβ at a final concentration of 0.1 mg/ml upon inducing differentiation of the ANSC-7 cell, and the number of Tuj1 positive neurons on day 6 following inducing differentiation was analyzed.

ANSC-7 cells [3] = assay: Apoptosis of ANSC-7 cells (in situ cell death detection kit, fluorescein); conditions: final concentration 0.1 mg/ml; 6 days; vs PBS
Procedure: According to the method described in the above section 7, lithium chloride was added to give the final concentration of 3 mmol/l into the medium containing ANSC-7 cells followed by culture for 6 days. ANSC-7 cells thus cultured after adding lithium chloride, and ANSC-7 cells cultured after adding PBS as a control were allowed to a reaction using an in situ cell death detection kit, fluorescein (manufactured by Roche Diagnostics K.K.) according to the attached protocol. The cells were observed using an inverted fluorescence microscope (manufactured by Nikon Corporation), and the number of apoptotic cell was counted per 2.44 mm^2.
According to a similar method to that shown in Experimental Example 8, ANSC-7 cells subjected to induction of differentiation for 6 days by a differentiation inducing medium containing the associated Aβ at the final concentration of 0.1 mg/ml, and ANSC-7 cells subjected to induction of differentiation by a medium containing PBS as a control were allowed to react using an in situ cell death detection kit, fluorescein (manufactured by Roche Diagnostics K.K.) according to the attached protocol. The cells were observed using an inverted fluorescence microscope (manufactured by Nikon Corporation), and the number of apoptotic cells per 2.44 mm^2 was counted.

GSK-3α = assay: Amount of GSK-3α in ANSC-7 cells after siRNA introduction (Western blotting); conditions: 150 pmol per 1×10^6 ANSC-7 cells; 48 hrs following seeding
ANSC-7 cells [4] = assay: Neuropoiesis of ANSC-7 adult neural stem cells: number of Tuj1 positive neurons after induction of differentiation; conditions: siRNA introduced into ANSC-7; day 6
[5] = final concentration 2 μmol/l, day 6
[6] = final concentration 5 μmol/l, day 6

O=C1Cc2c([nH]c3ccc(Br)cc23)-c2ccccc2N1 [Kenpaullone, 9-bromo-7,12-dihydro-indolo[3,2-d][1]benzazepin-6(5H)-one]
number of Tuj1 positive neurons in comparison with the negative control (ANSC-7 cells [1]; final concentration 0.5 μmol/l, day 6): 1.3 times
number of Tuj1 positive neurons in comparison with the negative control (ANSC-7 cells [1]; [5]): 2.7 times
number of Tuj1 positive neurons in comparison with the negative control (ANSC-7 cells [1]; [6]): 3.7 times
increase in number of Tuj1 positive neurons in comparison with associated Aβ alone (ANSC-7 cells [2]; 2 μmol/l with 0.1 mg/ml associated Aβ): 400%

CC[C@H](CO)Nc1nc(NCc2ccccc2)c2ncn(C(C)C)c2n1 [Roscovitine]
number of Tuj1 positive neurons in comparison with the negative control (ANSC-7 cells [1]; [5]): 1.0 times
number of Tuj1 positive neurons in comparison with the negative control (ANSC-7 cells [1]; [6]): 1.2 times
number of Tuj1 positive neurons in comparison with the negative control (ANSC-7 cells [1]; final concentration 10 μmol/l, day 6): 1.1 times

Cn1cc(C2=C(c3ccc(Cl)cc3Cl)C(=O)NC2=O)c2ccccc21 [SB-216763, 3-(2,4-dichlorophenyl)-4-(1-methylindole-3-yl)-1H-pyrrole-2,5-dione]
number of Tuj1 positive neurons relative to control (ANSC-7 cells [1]; final concentration 0.3 μmol/l, day 6): 1.2 times
number of Tuj1 positive neurons relative to control (ANSC-7 cells [1]; final concentration 1.0 μmol/l, day 6): 1.8 times

C=C[C@@]1(C)CC(=O)[C@]2(O)[C@@]3(C)[C@@H](O)CCC(C)(C)[C@@H]3[C@H](O)[C@H](OC(C)=O)[C@@]2(C)O1 [forskolin]
rate of increase in neurons (ANSC-7 cells [1]; 1 μmol/l, coexistence with 3 mmol/l lithium chloride): 1.2 times
rate of increase in neurons (ANSC-7 cells [1]; 1 μmol/l, without lithium chloride): 1.9 times
rate of increase in neurons (ANSC-7 cells [1]; 5 μmol/l, coexistence with 3 mmol/l lithium chloride): 1.1 times
rate of increase in neurons (ANSC-7 cells [1]; 5 μmol/l, without lithium chloride): 2.2 times

[Cl-].[Na+] [sodium chloride]
number of Tuj1 positive neurons relative to control (ANSC-7 cells [1]; final concentration 0.01 mmol/l, day 6 following induction of differentiation): 1.0 times
number of Tuj1 positive neurons relative to control (ANSC-7 cells [1]; final concentration 0.1 mmol/l, day 6 following induction of differentiation): 1.1 times
number of Tuj1 positive neurons relative to control (ANSC-7 cells [1]; final concentration 1 mmol/l, day 6 following induction of differentiation): 1.2 times
number of Tuj1 positive neurons relative to control (ANSC-7 cells [1]; final concentration 3 mmol/l, day 6 following induction of differentiation): 1.2 times

associated Aβ: beta amyloid peptide Aβ [1-40] incubated to form an associated product
increase in number of apoptotic positive cells (ANSC-7 cells [3]): 14%
decrease in number of Tuj1 positive neurons (ANSC-7 cells [2]; final concentration 0.1 mg/ml, vs PBS): 78%

indirubin-3′-monoxime
number of Tuj1 positive neurons in comparison with the negative control (ANSC-7 cells [1]; final concentration 1 μmol/l, day 6): 1.4 times

siRNA-B1: double stranded siRNA having SEQ ID NO: 14 and 15, specific for GSK-3β (chain 1 GUCAGUUACACAGACACUAUU; chain 2 UAGUGUCUGUGUAACUGACUU; listed as RNA, chemistry not given here)
amount of GSK-3α (GSK-3α): unchanged
number of Tuj1 positive neurons in comparison with the negative control siRNA (ANSC-7 cells [4]): 2.5 times

siRNA-B2: double stranded siRNA having SEQ ID NO: 16 and 17, specific for GSK-3β (chain 1 GUCUAGCCUAUAUCCAUUCUU; chain 2 GAAUGGAUAUAGGCUAGACUU; listed as RNA, chemistry not given here)
amount of GSK-3α (GSK-3α): unchanged
number of Tuj1 positive neurons in comparison with the negative control siRNA (ANSC-7 cells [4]): 1.9 times
